Data published in a melting point compilation (Tetko et al.).

Row | SMILES | melting point
1 | ClCc1coc(-c2ccc(Br)cc2)n1 | 112 to 114 °C
2 | O=C1CCCS(=O)(=O)c2ccccc21 | 151 to 153 °C
3 | Cc1ccnc2c1NC(=O)CN2 | 216 to 218 °C
4 | Cc1cn2c(C=O)c(C)nc2s1 | 153 to 155 °C
5 | COC(=O)C(=O)CN1C(=O)c2ccccc2C1=O | 134 to 136 °C
6 | CS(=O)(=O)c1cccc(C(=O)c2cc(F)ccc2F)c1 | 87 to 89 °C
7 | Cc1cc(Cl)c2cc([N+](=O)[O-])ccc2n1 | 140 to 142 °C
8 | NC(=O)C1CCCCS1 (centres undefined) | 164 to 166 °C
9 | Nc1cc(Cl)c(Cl)cn1 | 140 to 142 °C
10 | CNS(=O)(=O)CBr | 64 to 66 °C
11 | COC(=O)c1cc2c(C=O)ccc(OC)c2o1 | 171 to 173 °C
12 | O=C(O)CCc1cc(F)ccc1F | 71 to 73 °C
13 | O=C(O)Cn1cnc2ccc(Br)cc2c1=O | 277 to 279 °C
14 | CCOc1ccc(Oc2ccc(C(F)(F)F)cc2N)cc1 | 45 to 47 °C
15 | Cc1cc(C=O)nc(N2CCCCC2)n1 | 49 to 51 °C
16 | CCCS(=O)(=O)Nc1ccc(C(=O)O)cc1 | 187 to 189 °C
17 | CC(C)(C)OC(=O)N1CCCC1CC(=O)O (centres undefined) | 107 to 109 °C
18 | Cc1cc(C)n(-c2ccccc2N)n1 | 81 to 83 °C
19 | NC(=O)COc1cccnc1 | 93 to 95 °C
20 | Cc1c(I)cccc1[N+](=O)[O-] | 34 to 36 °C
21 | OC1CCCOc2cc(Br)ccc21 (centres undefined) | 73 to 75 °C
22 | Nc1cccc(-n2cnnc2)c1 | 199 to 201 °C
23 | CCc1nnc(-c2ccc(N)cc2)o1 | 137 to 139 °C
24 | Cc1cc(OCc2ccc(C(=O)NN)cc2)ccc1Cl | 78 to 80 °C
25 | CN(C)CCN1C(=O)C(=O)c2cc(Br)ccc21 | 102 to 104 °C
26 | CC(C)(c1ccccc1)c1nnc(N)o1 | 196 to 198 °C

Row | SMILES | melting point
27 | CN(C(=O)CCl)c1nccs1 | 123 to 125 °C
28 | Cc1cc(C)c(C(=O)O)c(N)c1 | 103 to 105 °C
29 | CC(Nc1ncc(C(=O)O)cc1Cl)c1cccnc1 (centres undefined) | 184 to 186 °C
30 | NNS(=O)(=O)c1ccc(Br)cc1 | 225 to 227 °C
31 | O=C(CCl)N1CC=C(c2ccccc2)CC1 | 86 to 88 °C
32 | CCN(CC)S(=O)(=O)c1ccc(C)c(C(=O)O)c1 | 140 to 142 °C
33 | CCC1NC(=O)NC1=O (centres undefined) | 115 to 119 °C
34 | Fc1ccccc1-c1nnc2ccc(Cl)nn12 | 164 to 166 °C
35 | CC(C)(C)c1ccc(C(=O)O)cc1[N+](=O)[O-] | 156 to 158 °C
36 | Nc1ncon1 | 104 to 106 °C
37 | O=c1[nH]cnc2c1oc1ccccc12 | 300 to 302 °C
38 | CC1CN(C(=O)c2cnn(C)c2N)CC(C)O1 (centres undefined) | 152 to 154 °C
39 | Cc1cccc(Cl)c1OCC(=O)O | 99 to 101 °C
40 | O=C1CS/C(=C/C(=O)c2ccco2)N1 | 251 to 253 °C
41 | CNS(=O)(=O)c1ccc(Cl)c(C(=O)O)c1Cl | 136 to 138 °C
42 | C=CCNS(=O)(=O)c1cccc(C(=O)O)c1 | 180 to 182 °C
43 | CC(C)Cn1c(N)c(C(=O)CCl)c(=O)n(C)c1=O | 104 to 106 °C
44 | Cc1cc(Br)c2ccccc2c1N | 79 to 81 °C
45 | O=C(c1cccnc1)c1cccc(Cl)c1 | 47 to 49 °C
46 | COc1ccc(CCCC(=O)O)c(OC)c1 | 46 to 48 °C
47 | COCc1nc(C)c(C(=O)O)s1 | 159 to 161 °C
48 | COc1c(C=O)c(C)nn1C | 55 to 57 °C
49 | O=C(Nc1nnc(-c2ccccn2)s1)OCC(F)(F)F | 246 to 248 °C
50 | N#Cc1ccccc1NC(=O)c1ccccn1 | 136 to 138 °C
51 | CC(C)Oc1ncc(C(=O)O)cc1Cl | 171 to 173 °C
52 | O=C(Cc1ccc(Br)cc1)Nc1cccc(C(=O)O)c1 | 291 to 293 °C

Row | SMILES | melting point
53 | C=CCSc1nc2ccccc2[nH]1 | 139 to 141 °C
54 | O=C(O)c1cccnc1SCc1ccc(F)cc1 | 191 to 193 °C
55 | Nc1nc(-c2ccc3c(c2)CCC(=O)N3)cs1 | 248 to 250 °C
56 | Nc1nc2ccccc2n1-c1ccccc1 | 148 to 150 °C
57 | Cc1ccc2ncccc2c1Br | 44 to 46 °C
58 | Nc1cc(Br)ccc1I | 49 to 51 °C
59 | NNC(=O)c1cc(-c2ccncc2)nc2ccccc12 | 226 to 228 °C
60 | COC(=O)c1ccccc1CCC(=O)O | 74 to 76 °C
61 | Cc1ccc(C(C)C)c(Oc2ccc(C=O)cc2[N+](=O)[O-])c1 | 109 to 111 °C
62 | c1cc(NC2CCCCCC2)c2cccnc2c1 | 100 to 102 °C
63 | COc1ccccc1CC(C)CC(=O)O (centres undefined) | 49 to 51 °C
64 | N#CCc1nc2cc(Cl)ccc2s1 | 155 to 157 °C
65 | CCCCc1ccc(NC(=S)NN)cc1 | 125 to 127 °C
66 | COc1nc(C)ccc1C#N | 84 to 86 °C
67 | Cn1cc2c(=O)[nH][nH]c(=O)c2c1-c1ccc(N)cc1 | 349 to 351 °C
68 | Cn1cc(C#N)c(=O)n(C)c1=O | 154 to 156 °C
69 | O=C(O)c1ccc2[nH]c(=O)oc2c1 | 307 to 309 °C
70 | CCCC(=O)Nc1ccc(CN)cc1 | 85 to 87 °C
71 | c1cc(-n2ccnc2)ccn1 | 104 to 106 °C
72 | Cc1cc(Br)c(N)cc1[N+](=O)[O-] | 115 to 117 °C
73 | Cc1ccncc1-n1ccnc1 | 64 to 66 °C
74 | CS(=O)(=O)Nc1ccccc1CC(=O)O | 126 to 128 °C
75 | CC(C)c1ccc(C2(O)CCC(=O)CC2)cc1 | 134 to 136 °C
76 | O=[N+]([O-])c1ccc(NCC2CCCO2)c(F)c1 (centres undefined) | 68 to 70 °C
77 | O=Cc1cnc(-c2cccnc2)s1 | 139 to 141 °C
78 | O=C(CCCc1ccccc1)Cc1ccc(Cl)cc1 | 31 to 33 °C

Row | SMILES | melting point
79 | CNC(=O)COc1cccc(O)c1 | 123 to 125 °C
80 | CC(N)c1ccccc1-c1ccccc1 (centres undefined) | 76 to 78 °C
81 | CC(C)=CCSCC(N)C(=O)O (centres undefined) | 189 to 191 °C
82 | COc1cc(C#N)ccc1Oc1ccc(N)cc1 | 123 to 125 °C
83 | C=CCNc1nc(C(=O)OCC)cs1 | 84 to 86 °C
84 | Nc1ccc(-n2ccnc2)nc1 | 114 to 116 °C
85 | O=S1(=O)CCC(S(=O)(=O)Cl)C1 (centres undefined) | 114 to 116 °C
86 | O=C(O)c1ccc(N2CCOCC2)c([N+](=O)[O-])c1 | 186 to 188 °C
87 | CC1(c2ccsc2)CC(=O)NC1=O (centres undefined) | 96 to 98 °C
88 | CN(c1ccc(O)cc1)S(=O)(=O)c1ccccc1 | 131 to 133 °C
89 | CC(=O)c1sc(Cc2ccccc2)nc1C | 53 to 55 °C
90 | CC(C)n1nnc(C(=O)O)c1C(F)(F)F | 99 to 101 °C
91 | O=C(O)c1n[nH]c2ccc([N+](=O)[O-])cc12 | 253 to 255 °C
92 | CC(NC(=O)CCl)c1ccccc1 (centres undefined) | 75 to 77 °C
93 | c1c[nH]c(C2CCNCC2)n1 | 176 to 178 °C
94 | CCS(=O)(=O)c1ccc(C(=O)O)c(N)c1 | 184 to 186 °C
95 | CC(O)CNS(=O)(=O)c1ccc(C(=O)O)cc1 (centres undefined) | 208 to 210 °C
96 | COc1ccc(C2CC2C(=O)O)cc1 (centres undefined) | 109 to 111 °C
97 | COc1cc(C)cc2c(C)c(C(C)N)oc12 (centres undefined) | 56 to 58 °C
98 | O=S(=O)(Cl)c1cc(Cl)cc2c1OCC2 | 105 to 107 °C
99 | NC(=S)C1CN2CCCC2CO1 (centres undefined) | 146 to 148 °C
100 | CCCCn1c(N)c(NCc2ccccc2OC)c(=O)[nH]c1=O | 198 to 200 °C
101 | COc1ccc(Br)cc1CCC(=O)O | 116 to 118 °C
102 | O=C(O)c1ccccc1OCc1ccc(Br)cc1 | 119 to 121 °C
103 | CCn1c(=O)cc(N)n(Cc2ccccc2)c1=O | 106 to 108 °C
104 | O=Cc1cnc2ccnn2c1 | 166 to 168 °C
